Key:
Type in all cases: binding
[1] = target: T1, kinases (KINOMEscan panel) (Homo sapiens, UniProt P54762); conditions: kinase EPHB1; NEW KINOMEscan
T1 sequence (P54762 18-984): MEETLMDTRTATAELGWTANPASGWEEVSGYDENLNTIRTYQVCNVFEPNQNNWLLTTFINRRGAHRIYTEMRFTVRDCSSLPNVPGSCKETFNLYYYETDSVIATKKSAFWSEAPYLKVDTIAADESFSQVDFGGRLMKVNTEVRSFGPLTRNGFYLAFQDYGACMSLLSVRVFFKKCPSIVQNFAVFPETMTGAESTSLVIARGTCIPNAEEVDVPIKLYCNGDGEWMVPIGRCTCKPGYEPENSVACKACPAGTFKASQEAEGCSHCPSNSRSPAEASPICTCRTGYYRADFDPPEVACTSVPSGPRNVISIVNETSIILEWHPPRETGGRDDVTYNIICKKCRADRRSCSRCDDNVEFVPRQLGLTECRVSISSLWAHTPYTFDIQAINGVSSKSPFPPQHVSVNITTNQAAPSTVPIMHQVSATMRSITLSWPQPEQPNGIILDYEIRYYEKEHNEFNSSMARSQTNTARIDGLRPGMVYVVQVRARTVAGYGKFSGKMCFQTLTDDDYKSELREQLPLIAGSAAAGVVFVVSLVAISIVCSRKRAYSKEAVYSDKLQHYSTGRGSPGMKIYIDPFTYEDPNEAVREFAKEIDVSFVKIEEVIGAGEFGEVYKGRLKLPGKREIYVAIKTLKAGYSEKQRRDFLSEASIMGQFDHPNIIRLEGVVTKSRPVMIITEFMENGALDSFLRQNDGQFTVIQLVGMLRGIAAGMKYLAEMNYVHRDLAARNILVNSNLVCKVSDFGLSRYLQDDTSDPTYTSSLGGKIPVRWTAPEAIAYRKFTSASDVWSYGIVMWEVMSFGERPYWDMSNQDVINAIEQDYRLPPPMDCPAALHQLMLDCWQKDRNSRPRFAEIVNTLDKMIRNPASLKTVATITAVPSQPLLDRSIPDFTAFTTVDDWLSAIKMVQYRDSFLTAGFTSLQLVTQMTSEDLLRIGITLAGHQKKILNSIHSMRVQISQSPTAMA

[2] = target: T2, kinases (KINOMEscan panel) (Homo sapiens, UniProt O14936); conditions: kinase CASK; NEW KINOMEscan
T2 sequence (O14936 1-926): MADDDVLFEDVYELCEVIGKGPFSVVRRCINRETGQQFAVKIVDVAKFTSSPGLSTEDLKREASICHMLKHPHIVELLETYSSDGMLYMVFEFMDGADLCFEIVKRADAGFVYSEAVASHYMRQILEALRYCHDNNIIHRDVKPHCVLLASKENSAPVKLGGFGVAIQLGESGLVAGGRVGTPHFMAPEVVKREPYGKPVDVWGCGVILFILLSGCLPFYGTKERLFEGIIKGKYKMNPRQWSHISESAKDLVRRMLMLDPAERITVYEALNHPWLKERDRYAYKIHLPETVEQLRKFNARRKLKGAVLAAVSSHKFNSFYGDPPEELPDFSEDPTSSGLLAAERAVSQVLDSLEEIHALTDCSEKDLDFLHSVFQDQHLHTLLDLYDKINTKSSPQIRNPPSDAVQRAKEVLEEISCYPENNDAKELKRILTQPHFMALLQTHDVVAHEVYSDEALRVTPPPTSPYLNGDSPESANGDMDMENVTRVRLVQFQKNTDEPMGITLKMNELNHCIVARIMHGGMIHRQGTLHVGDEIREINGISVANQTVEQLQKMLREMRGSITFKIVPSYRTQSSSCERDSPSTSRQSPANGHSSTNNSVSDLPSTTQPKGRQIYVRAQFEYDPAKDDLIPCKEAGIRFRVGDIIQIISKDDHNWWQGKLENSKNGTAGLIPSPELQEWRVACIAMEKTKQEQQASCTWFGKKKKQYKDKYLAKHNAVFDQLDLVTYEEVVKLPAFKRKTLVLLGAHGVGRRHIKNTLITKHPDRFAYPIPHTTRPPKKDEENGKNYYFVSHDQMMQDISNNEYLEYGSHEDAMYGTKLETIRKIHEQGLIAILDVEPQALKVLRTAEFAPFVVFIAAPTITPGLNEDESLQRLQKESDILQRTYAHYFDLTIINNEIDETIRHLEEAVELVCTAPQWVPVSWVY

[3] = target: kinases (KINOMEscan panel) (Homo sapiens, UniProt Q9H4B4); conditions: kinase PLK3; NEW KINOMEscan
[4] = target: T3, kinases (KINOMEscan panel) (Homo sapiens, UniProt Q12851); conditions: kinase MAP4K2; NEW KINOMEscan
T3 sequence (Q12851 1-820): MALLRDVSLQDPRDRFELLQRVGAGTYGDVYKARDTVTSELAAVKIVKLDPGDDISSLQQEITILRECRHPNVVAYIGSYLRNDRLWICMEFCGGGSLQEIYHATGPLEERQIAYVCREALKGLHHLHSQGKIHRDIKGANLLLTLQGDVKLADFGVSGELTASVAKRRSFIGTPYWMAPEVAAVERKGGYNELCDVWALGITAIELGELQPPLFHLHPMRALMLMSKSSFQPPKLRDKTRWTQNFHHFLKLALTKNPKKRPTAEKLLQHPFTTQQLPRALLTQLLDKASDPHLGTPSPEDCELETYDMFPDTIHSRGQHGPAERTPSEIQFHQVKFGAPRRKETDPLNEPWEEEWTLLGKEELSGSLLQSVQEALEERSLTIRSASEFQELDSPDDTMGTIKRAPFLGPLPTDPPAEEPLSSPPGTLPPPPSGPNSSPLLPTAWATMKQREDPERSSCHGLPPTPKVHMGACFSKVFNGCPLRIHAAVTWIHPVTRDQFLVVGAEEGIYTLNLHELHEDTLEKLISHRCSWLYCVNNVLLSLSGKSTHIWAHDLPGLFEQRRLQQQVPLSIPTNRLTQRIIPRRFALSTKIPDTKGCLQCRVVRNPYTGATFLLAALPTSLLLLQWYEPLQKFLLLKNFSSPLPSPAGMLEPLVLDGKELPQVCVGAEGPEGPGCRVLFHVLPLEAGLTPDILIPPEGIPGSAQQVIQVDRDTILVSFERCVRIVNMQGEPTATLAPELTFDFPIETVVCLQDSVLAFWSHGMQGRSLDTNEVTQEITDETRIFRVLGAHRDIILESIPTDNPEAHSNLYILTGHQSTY

[5] = target: kinases (KINOMEscan panel) (Homo sapiens, UniProt P21860); conditions: ERBB3; NEW KINOMEscan
kinases (KINOMEscan panel) (Homo sapiens, UniProt P21860), sequence (P21860 20-1342): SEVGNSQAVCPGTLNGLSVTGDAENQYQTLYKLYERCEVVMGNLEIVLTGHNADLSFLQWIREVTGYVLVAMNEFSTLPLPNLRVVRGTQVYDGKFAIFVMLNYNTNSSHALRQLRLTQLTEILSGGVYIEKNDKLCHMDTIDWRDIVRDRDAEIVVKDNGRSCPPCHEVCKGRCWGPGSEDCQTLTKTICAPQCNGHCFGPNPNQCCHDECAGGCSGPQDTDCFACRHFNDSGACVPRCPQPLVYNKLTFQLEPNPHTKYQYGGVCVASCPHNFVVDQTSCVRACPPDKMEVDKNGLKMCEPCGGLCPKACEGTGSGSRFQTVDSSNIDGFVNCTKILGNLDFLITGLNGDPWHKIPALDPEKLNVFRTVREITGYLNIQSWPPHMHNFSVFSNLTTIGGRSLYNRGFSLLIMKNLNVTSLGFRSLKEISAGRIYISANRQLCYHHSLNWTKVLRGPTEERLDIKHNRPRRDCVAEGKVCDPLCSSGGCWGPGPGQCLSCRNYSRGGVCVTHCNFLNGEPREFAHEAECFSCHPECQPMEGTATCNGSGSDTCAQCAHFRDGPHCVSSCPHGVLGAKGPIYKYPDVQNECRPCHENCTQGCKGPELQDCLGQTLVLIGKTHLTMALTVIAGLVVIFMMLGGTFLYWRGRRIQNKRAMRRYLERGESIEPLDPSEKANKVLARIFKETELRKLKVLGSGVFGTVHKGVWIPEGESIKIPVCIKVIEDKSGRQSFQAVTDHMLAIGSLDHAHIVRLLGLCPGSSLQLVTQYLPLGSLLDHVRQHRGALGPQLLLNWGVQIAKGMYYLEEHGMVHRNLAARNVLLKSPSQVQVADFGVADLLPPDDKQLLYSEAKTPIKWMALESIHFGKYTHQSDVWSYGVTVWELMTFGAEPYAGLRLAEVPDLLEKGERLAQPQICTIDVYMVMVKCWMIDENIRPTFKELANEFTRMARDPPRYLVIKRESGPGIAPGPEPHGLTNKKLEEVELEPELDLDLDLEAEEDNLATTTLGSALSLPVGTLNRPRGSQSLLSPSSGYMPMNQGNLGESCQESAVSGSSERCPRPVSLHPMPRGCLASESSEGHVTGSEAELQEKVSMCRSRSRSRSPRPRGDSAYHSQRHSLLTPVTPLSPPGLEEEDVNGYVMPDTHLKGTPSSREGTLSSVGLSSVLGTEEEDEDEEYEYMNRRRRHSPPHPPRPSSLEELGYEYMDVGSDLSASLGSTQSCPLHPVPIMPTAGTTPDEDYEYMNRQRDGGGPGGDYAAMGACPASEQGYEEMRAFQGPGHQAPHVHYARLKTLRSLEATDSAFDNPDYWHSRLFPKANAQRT

kinases (KINOMEscan panel) (Homo sapiens, UniProt Q9H4B4), sequence (Q9H4B4 whole entry): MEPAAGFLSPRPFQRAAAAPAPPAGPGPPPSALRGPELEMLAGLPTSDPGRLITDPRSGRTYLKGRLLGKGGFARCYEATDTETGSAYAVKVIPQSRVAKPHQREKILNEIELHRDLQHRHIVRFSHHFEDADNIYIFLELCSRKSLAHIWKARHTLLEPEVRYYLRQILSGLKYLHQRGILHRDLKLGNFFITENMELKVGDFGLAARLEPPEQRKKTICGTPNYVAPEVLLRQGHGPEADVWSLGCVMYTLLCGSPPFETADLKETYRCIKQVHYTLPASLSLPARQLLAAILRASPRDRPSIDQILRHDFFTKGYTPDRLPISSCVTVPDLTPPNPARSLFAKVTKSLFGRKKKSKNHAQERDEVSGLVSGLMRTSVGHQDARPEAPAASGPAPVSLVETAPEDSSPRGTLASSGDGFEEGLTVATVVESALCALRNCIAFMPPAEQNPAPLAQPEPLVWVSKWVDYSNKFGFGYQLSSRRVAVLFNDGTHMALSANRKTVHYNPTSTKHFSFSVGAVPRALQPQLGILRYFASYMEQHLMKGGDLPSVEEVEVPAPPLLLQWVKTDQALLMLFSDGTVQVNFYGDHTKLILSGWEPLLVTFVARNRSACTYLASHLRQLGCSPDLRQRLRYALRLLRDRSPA

| Structure (SMILES) | KINOMEscan EPHB1 [1] | KINOMEscan CASK [2] | KINOMEscan PLK3 [3] | KINOMEscan MAP4K2 [4] | KINOMEscan ERBB3 [5] |
| --- | --- | --- | --- | --- | --- |
| Cc1cccc(-c2nc(Nc3ccc4nn(C)cc4c3)c3ccccc3n2)n1 [NK167] | 0 | 0 | 16 | 0 | 0 |
| Cc1cccc(-c2nc(N(C)c3ccc4ncsc4c3)c3ccccc3n2)n1 [NK-161] | 14 | 0 | 13 | 6 | 11 |
